The inhibition is the relative decrease from the control value, in per cent. As a reminder, the Ki is a measure of affinity in units of concentration, obtained from inhibition or displacement. By IC50 is commonly meant the concentration at which inhibition is half-maximal. A high value points to a need for much substance.

25 molecules from ChEMBL document CHEMBL1138044, “4-amido-2-aryl-1,2,4-triazolo[4,3-a]quinoxalin-1-ones as new potent and selective human A3 adenosine receptor antagonists. synthesis, pharmacological evaluation, and ligand-receptor modeling studies” (J Med Chem, 2006) can be followed below.

The test system of test [1] is Adenosine receptor A2a (Bos taurus). As to the kind of experiment: Inhibition of [3H]CGS 21680 binding to adenosine A2A receptor in bovine striatal membranes at 10 uM. Particulars: Striatum, Membrane.
For test [2], the target named is T1, Adenosine receptor A1 (Homo sapiens) (UniProt P30542).
T1 sequence (whole entry): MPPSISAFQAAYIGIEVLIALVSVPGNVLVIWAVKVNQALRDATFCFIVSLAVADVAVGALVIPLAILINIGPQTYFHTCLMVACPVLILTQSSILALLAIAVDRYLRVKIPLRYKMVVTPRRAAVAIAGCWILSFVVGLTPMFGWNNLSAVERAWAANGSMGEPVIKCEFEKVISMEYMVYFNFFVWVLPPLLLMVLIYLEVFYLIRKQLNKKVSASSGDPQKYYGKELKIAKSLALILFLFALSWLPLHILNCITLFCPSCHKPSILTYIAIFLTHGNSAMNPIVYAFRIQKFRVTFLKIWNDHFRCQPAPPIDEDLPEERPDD
Nature of the test: Inhibition of [3H]DPCPX binding to human adenosine A1 receptor at 10 uM.

The target in test [3] is T2, Adenosine receptor A3 (Homo sapiens, UniProt P0DMS8).
T2 sequence (P0DMS8 whole entry): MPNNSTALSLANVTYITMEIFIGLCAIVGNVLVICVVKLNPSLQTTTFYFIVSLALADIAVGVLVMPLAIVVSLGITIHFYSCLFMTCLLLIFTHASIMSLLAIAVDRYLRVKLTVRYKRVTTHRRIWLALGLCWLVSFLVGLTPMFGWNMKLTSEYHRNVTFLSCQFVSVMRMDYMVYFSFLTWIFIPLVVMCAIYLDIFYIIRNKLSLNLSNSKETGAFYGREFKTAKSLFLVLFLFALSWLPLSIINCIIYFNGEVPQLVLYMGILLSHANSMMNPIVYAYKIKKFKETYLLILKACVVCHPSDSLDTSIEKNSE
As to the kind of experiment: Displacement of [125I]AB-MECA from human adenosine A3 receptor expressed in CHO cells. In kind it is cell-based. A general note: Loss of bound radioactivity is the signal in a displacement assay; it reports binding, not function.

The target of test [4] is T3, Adenosine receptor A2a (Homo sapiens, UniProt P29274). As to the kind of experiment: Inhibition of [3H]NECA binding to human adenosine A2A receptor at 10 uM.
Test [5] deals with T4, Adenosine receptor A1 (Bos taurus, UniProt P28190).
T4 sequence (P28190 whole entry): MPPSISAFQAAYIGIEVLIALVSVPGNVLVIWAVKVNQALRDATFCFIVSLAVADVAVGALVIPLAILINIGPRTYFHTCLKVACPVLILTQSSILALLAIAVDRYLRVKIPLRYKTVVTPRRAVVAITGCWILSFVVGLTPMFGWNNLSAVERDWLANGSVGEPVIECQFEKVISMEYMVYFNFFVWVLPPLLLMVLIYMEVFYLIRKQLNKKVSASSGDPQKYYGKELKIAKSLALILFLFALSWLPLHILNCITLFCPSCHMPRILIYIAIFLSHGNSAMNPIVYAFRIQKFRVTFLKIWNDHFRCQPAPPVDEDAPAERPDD
Nature of the test: Displacement of [3H]DPCPX from adenosine A1 receptor in bovine brain membranes. In kind it is cell membranes.

Test [6] deals with T5, Adenosine receptor A3 (Homo sapiens) (UniProt P0DMS8).
T5 sequence (whole entry): T2 sequence (P0DMS8 whole entry)
As to the kind of experiment: Inhibition of [125I]AB-MECA binding to human adenosine A3 receptor at 1 uM.

In test [7] the target is T6, Adenosine receptor A1 (Bos taurus) (UniProt P28190).
T6 sequence (whole entry): T4 sequence (P28190 whole entry)
As to the kind of experiment: Inhibition of [3H]DPCPX binding to adenosine A1 receptor in bovine brain membranes at 10 uM. In kind it is cell membranes.

For test [8], the target named is T3, Adenosine receptor A2a. As to the kind of experiment: Displacement of [3H]NECA from human adenosine A2A receptor expressed in CHO cells. The test is classed as cell-based.
The target of test [9] is T7, Adenosine receptor A1 (Homo sapiens, UniProt P30542).
T7 sequence (P30542 whole entry): T1 sequence (whole entry)
As to the kind of experiment: Displacement of [3H]DPCPX from human adenosine A1 receptor expressed in CHO cells. In kind it is cell-based.

In a further test the target is T8, Adenosine receptor A2b (Homo sapiens, UniProt P29275).
T8 sequence (P29275 whole entry): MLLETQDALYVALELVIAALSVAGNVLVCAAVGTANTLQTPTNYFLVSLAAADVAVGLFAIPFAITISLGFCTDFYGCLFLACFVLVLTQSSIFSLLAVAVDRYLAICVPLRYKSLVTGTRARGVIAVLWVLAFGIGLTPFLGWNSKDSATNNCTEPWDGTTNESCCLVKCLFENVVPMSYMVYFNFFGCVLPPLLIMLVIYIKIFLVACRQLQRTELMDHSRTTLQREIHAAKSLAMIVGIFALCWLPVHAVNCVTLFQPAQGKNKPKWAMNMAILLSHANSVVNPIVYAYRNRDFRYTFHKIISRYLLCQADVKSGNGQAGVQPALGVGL
As to the kind of experiment: Inhibition of NECA-stimulated cAMP level in CHO cells transfected with human adenosine A2B receptor. In kind it is functional, cell-based. (Cyclic AMP is a second messenger, typically raised through Gs and lowered through Gi signalling.)

The target in test [10] is T9, Adenosine receptor A2b (Homo sapiens) (UniProt P29275).
T9 sequence (whole entry): T8 sequence (P29275 whole entry)
Nature of the test: Inhibition of NECA-stimulated cAMP level in CHO cells transfected with human adenosine A2B receptor at 1 uM. The test is classed as functional, cell-based.

In test [11] the target is T2, Adenosine receptor A3. Nature of the test: Antagonist activity against Cl-IB-MECA inhibited cAMP level in CHO cells transfected with human A3 receptor. In kind it is functional, cell-based.
For test [12], the target named is Adenosine receptor A2a (Bos taurus). As to the kind of experiment: Displacement of [3H]CGS 21680 from adenosine A2A receptor in bovine striatal membranes.

T3 sequence (P29274 whole entry): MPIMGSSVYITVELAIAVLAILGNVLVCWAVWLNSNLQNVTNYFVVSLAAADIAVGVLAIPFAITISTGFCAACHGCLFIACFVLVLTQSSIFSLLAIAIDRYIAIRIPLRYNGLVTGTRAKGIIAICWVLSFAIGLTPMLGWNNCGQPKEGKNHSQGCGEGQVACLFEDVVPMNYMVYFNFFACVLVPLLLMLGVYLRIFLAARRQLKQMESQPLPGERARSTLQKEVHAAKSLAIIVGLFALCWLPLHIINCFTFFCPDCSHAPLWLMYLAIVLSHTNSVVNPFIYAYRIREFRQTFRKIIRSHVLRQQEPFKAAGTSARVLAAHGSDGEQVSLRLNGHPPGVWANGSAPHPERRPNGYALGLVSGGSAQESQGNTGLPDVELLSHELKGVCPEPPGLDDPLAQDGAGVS

For `COc1ccc(-n2nc3c(NC(=O)C(c4ccccc4)c4ccccc4)nc4c(N)cccc4n3c2=O)cc1`, the figures for the inhibition (in [1]; in test [2]; on Adenosine receptor A2a [4]) were 0%, 0% and 31%, respectively. Moreover, the figures for the Ki at Adenosine receptor A3 [3] and at Adenosine receptor A1 [5] were 2.58 nM and 77.5 nM, respectively.
With `O=C(Nc1nc2ccccc2n2c(=O)n(-c3ccc([N+](=O)[O-])cc3)nc12)C(c1ccccc1)c1ccccc1`, the inhibition in test [1] was found to be 0%; in test [6], 13%; in test [7], 30%.
As for `COc1ccc(-n2nc3c(N(C(=O)c4ccccc4)C(=O)c4ccccc4)nc4c([N+](=O)[O-])cccc4n3c2=O)cc1`, at Adenosine receptor A3 [3], affinity was put at a Ki of 343 nM. In test [7], this molecule showed an inhibition of 20%.
With `O=C(Nc1nc2ccccc2n2c(=O)n(-c3ccccc3)nc12)c1ccccc1`, the Ki at Adenosine receptor A2a [8] amounted to 88.2 nM; at Adenosine receptor A1 [9] it was 87.8 nM.
As for `COc1ccc(-n2nc3c(NC(=O)c4ccccc4)nc4ccccc4n3c2=O)cc1`, the inhibition in test [1] was determined as 23%; in [2] it was 37%. The results for the Ki at Adenosine receptor A3 [3], at Adenosine receptor A2a [8] and at Adenosine receptor A1 [5] were 2.9 nM, 3580 nM and 1010 nM, respectively.
Take `O=C(Nc1nc2c([N+](=O)[O-])cccc2n2c(=O)n(-c3ccccc3)nc12)C(c1ccccc1)c1ccccc1`: the inhibition in [1] is 29.5%; in test [2] it was 12%; on Adenosine receptor A2a [4], 49%. Besides, the Ki at Adenosine receptor A3 [3] was determined as 14.9 nM; at Adenosine receptor A1 [5], 3.9 nM.
As to `O=C(Nc1nc2ccccc2n2c(=O)n(-c3ccc([N+](=O)[O-])cc3)nc12)c1ccccc1`, the inhibition in [1] was 26%; in test [7], 55%. The molecule further yielded a Ki on Adenosine receptor A3 [3] of 100 nM.
On to `COc1ccc(-n2nc3c(NC(C)=O)nc4ccccc4n3c2=O)cc1`, for which the inhibition in test [2] amounted to 34%; at Adenosine receptor A2a [4], 6%. Besides, the results for the inhibition constant (Ki) at Adenosine receptor A3 [3] and on Adenosine receptor A1 [5] were 35.7 nM and 245 nM, respectively.
In the case of `COc1ccc(-n2nc3c(NC(=O)C(c4ccccc4)c4ccccc4)nc4c([N+](=O)[O-])cccc4n3c2=O)cc1`, the inhibition came to 0% in test [1], 11% in [2] and 2% at Adenosine receptor A2a [4]. Also, the Ki on Adenosine receptor A1 [5] was determined as 260 nM.
`COc1ccc(-n2nc3c(NC(=O)C(c4ccccc4)c4ccccc4)nc4ccccc4n3c2=O)cc1`: the results for the inhibition in [2] and in test [10] were 25% and 37%, respectively. The IC50 at Adenosine receptor A2b was greater than 1000 nM; against Adenosine receptor A3 [11], 215 nM. Besides, the Ki stood at 44 nM on Adenosine receptor A3 [3] and 7.2 nM at Adenosine receptor A1 [5].
With `COc1ccc(-n2nc3c(NC(=O)c4ccccc4)nc4c([N+](=O)[O-])cccc4n3c2=O)cc1`, the inhibition in test [1] was 15%; in test [7], 35%. At Adenosine receptor A3 [3], the affinity corresponds to a Ki of 217 nM.
For the molecule `Nc1cccc2c1nc(NC(=O)C(c1ccccc1)c1ccccc1)c1nn(-c3ccccc3)c(=O)n12`, the inhibition in test [1] was determined as 12%; in [2] it was 2.5%. Moreover, the results for the Ki on Adenosine receptor A3 [3], at Adenosine receptor A2a [8] and at Adenosine receptor A1 [5] were 8.65 nM, 627 nM and 1.6 nM, respectively.
As for `O=C(c1ccccc1)N(C(=O)c1ccccc1)c1nc2c([N+](=O)[O-])cccc2n2c(=O)n(-c3ccccc3)nc12`, the inhibition came out at 0% in [1], 27% in [6] and 39% in [7].
`Nc1cccc2c1nc(N(C(=O)c1ccccc1)C(=O)c1ccccc1)c1nn(-c3ccccc3)c(=O)n12` displayed an inhibition in [1] of 36%. Moreover, the Ki at Adenosine receptor A3 [3] was 1240 nM; on Adenosine receptor A1 [5], 79 nM.
For the molecule `O=C(c1ccccc1)N(C(=O)c1ccccc1)c1nc2ccccc2n2c(=O)n(-c3ccccc3)nc12`, the inhibition was 1% in test [2], 15% in [10] and 43% on Adenosine receptor A2a [4]. For the same molecule, the IC50 against Adenosine receptor A2b was greater than 1000 nM; against Adenosine receptor A3 [11], 28.3 nM. Also, the Ki on Adenosine receptor A3 [3] worked out at 5.2 nM; on Adenosine receptor A1 [5], 30 nM.
Regarding `CC(=O)Nc1nc2c([N+](=O)[O-])cccc2n2c(=O)n(-c3ccccc3)nc12`, the inhibition was 36% in test [1] and 18% in [6]. On Adenosine receptor A1 [5], the Ki was found to be 6 nM.
For `CC(=O)Nc1nc2ccccc2n2c(=O)n(-c3ccccc3)nc12`, the affinity on Adenosine receptor A1 [9], expressed as Ki, was 2000 nM. The same molecule came in with an inhibition on Adenosine receptor A2a [4] of 22%.
Consider `COc1ccc(-n2nc3c(NC(C)=O)nc4c([N+](=O)[O-])cccc4n3c2=O)cc1`, for which the inhibition was 7% in test [1], 36% in [6] and 0% in test [7].
On to `COc1ccc(-n2nc3c(NC(C)=O)nc4c(N)cccc4n3c2=O)cc1`, for which the inhibition constant Ki at Adenosine receptor A3 [3] came to 5.5 nM; at Adenosine receptor A2a [8], 1100 nM; at Adenosine receptor A1 [9], 2700 nM; on Adenosine receptor A1 [5] it was 363 nM.
Turning to `COc1ccc(-n2nc3c(N(C(=O)c4ccccc4)C(=O)c4ccccc4)nc4ccccc4n3c2=O)cc1`, the inhibition in test [2] was 2%; in [10], 13%; on Adenosine receptor A2a [4], 26%. Moreover, the IC50 at Adenosine receptor A2b is greater than 1000 nM; against Adenosine receptor A3 [11] it was 31.8 nM. Moreover, the inhibitory constant (Ki) at Adenosine receptor A3 [3] came to 3.29 nM; on Adenosine receptor A1 [5], 175 nM.
Molecule `CC(=O)Nc1nc2c(N)cccc2n2c(=O)n(-c3ccccc3)nc12` came in with an inhibition in test [2] of 32%. Moreover, the figures for the inhibition constant Ki at Adenosine receptor A3 [3] and on Adenosine receptor A1 [5] were 48 nM and 1 nM, respectively.
As for `COc1ccc(-n2nc3c(NC(=O)c4ccccc4)nc4c(N)cccc4n3c2=O)cc1`, the inhibition was 45% in [2], 17% in [10] and 24% at Adenosine receptor A2a [4]. For the same molecule, the IC50 was greater than 1000 nM at Adenosine receptor A2b and 8.6 nM against Adenosine receptor A3 [11]. In addition, the values for the Ki at Adenosine receptor A3 [3] and on Adenosine receptor A1 [5] were 1 nM and 393 nM, respectively.
As to `O=C(Nc1nc2ccccc2n2c(=O)n(-c3ccccc3)nc12)C(c1ccccc1)c1ccccc1`, the Ki worked out at 0.81 nM at Adenosine receptor A3 [3], 1160 nM in test [12], 18.8 nM on Adenosine receptor A1 [9] and 10.2 nM on Adenosine receptor A1 [5]. Also, at Adenosine receptor A2a [4], the inhibition amounted to 58%.
As for `O=C(Nc1nc2c([N+](=O)[O-])cccc2n2c(=O)n(-c3ccccc3)nc12)c1ccccc1`, the inhibition in [1] was found to be 0%; in test [2] it was 15%; on Adenosine receptor A2a [4], 25%; in test [7], 32%. This molecule had a Ki on Adenosine receptor A3 [3] of 22 nM.
Turning to `Nc1cccc2c1nc(NC(=O)c1ccccc1)c1nn(-c3ccccc3)c(=O)n12`, the inhibition in test [1] turned out to be 27.8%. Besides, the Ki at Adenosine receptor A3 [3] was found to be 22 nM; on Adenosine receptor A2a [8], 4850 nM; at Adenosine receptor A1 [9] it was 98 nM; on Adenosine receptor A1 [5], 42 nM.
